One assay addresses T1, μ-receptor (Rattus norvegicus, UniProt P33535).
T1 construct: from tissue; host or cells: rat brain (homogenate / synaptic plasma membranes, whole brain without cerebellum)
In words: (3H)-DAMGO displacement receptor assay. In kind it is binding. The conditions noted are these: LIGAND program; for IC50: displacement of (3H)-DAMGO specific binding, radioligand about 24 x 10^-10 M. The method, then:
(§1) In the experiments noted in FIGS. 3 and 4 and in Table 1 (^3 H)-(D-Ala^2,MePhe^4,Gly-ol^5)-enkephalin (DAGO or DAMGO) and (^3 H)-(D-Ala^2,D-Leu^5)-enkephalin (DADL) purchased from Amersham (Buckinghamshire, England) were used as radioligands in a binding assay performed as in Reg.
(§2) The peptides were employed for both receptor tests and bioassays on electrically stimulated guinea pig ileum strips (GPI-tests). The receptor assays were performed in the same manner as above with DAMGO as a radioligand to the μ-receptor. In the assays (^3 H)-DAMGO specific binding was displaced by the different tested substances (10^-5 M to 10^-10 M). […] Ups. […] The magnitude of activity in relation to a standard compound, normorphine was recorded.

Assay [1] deals with T2, δ-receptor ((3H)-DADL binding site) (Rattus norvegicus, UniProt P33533).
T2 construct: from tissue; host or cells: rat brain homogenate
In words: (3H)-DADL binding assay, rat brain homogenates. The conditions noted are these: duplicate determination, one site model, EBDA/LIGAND.
Source text: as §1
(§3) In the publication β-Casomorphins and Related Peptides Ed.

The target in assay [2] is T3, μ-receptor ((3H)-DAGO binding site) (Rattus norvegicus, UniProt P33535).
T3 construct: from tissue; host or cells: rat brain (homogenate / synaptic plasma membranes, whole brain without cerebellum)
Kind of assay: (3H)-DAGO binding assay, rat brain homogenates. The conditions noted are these: duplicate determination, one site model, EBDA/LIGAND.
Source text: as §1, §3

Assay [3] concerns electrically stimulated guinea pig ileum strips. The settings on record: relative to standard compound normorphine = 1. The method, then:
as §2

This note sets out measurements from US5872097A, “Oligopeptides with affinity to opioid receptors” (Pharmacia & Upjohn Aktiebolag, priority 1992, dated 1999).

Bridge positions count the residues as written; N and C are the ends. Square brackets hold non-standard residues; d marks the D form. Ends that are not written are not given here. Peptide text beside a SMILES is read from it. Dab = NCC[C@H](N)C(=O)O

T1 sequence (P33535 whole entry): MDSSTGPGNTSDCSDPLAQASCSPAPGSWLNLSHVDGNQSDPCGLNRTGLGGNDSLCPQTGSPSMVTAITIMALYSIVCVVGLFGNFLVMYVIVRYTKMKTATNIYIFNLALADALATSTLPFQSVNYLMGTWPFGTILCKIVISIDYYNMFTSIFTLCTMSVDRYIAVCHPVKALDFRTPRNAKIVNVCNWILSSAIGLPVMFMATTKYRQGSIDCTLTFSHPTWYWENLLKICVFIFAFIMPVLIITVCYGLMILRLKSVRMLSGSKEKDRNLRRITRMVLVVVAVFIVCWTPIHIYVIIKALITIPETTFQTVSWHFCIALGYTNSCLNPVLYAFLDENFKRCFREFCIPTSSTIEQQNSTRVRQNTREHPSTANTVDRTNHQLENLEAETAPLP
T3 sequence (P33535 whole entry): as above
T2 sequence (P33533 whole entry): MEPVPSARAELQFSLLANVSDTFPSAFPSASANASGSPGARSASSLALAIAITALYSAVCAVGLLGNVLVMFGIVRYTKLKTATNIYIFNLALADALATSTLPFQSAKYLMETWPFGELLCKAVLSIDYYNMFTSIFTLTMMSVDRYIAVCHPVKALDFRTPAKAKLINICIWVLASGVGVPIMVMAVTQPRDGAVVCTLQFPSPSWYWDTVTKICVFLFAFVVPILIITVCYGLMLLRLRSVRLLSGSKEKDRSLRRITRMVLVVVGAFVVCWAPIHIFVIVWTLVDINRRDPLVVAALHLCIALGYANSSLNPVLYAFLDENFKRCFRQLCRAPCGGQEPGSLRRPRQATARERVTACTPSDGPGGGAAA

Consider `CC(C)C[C@@H]1NC(=O)[C@H](Cc2ccccc2)NC(=O)[C@@H](NC(=O)[C@@H](N)Cc2ccc(O)cc2)CCNC(=O)[C@H](CCC(=O)O)NC1=O` (H-Y[Dab]FLE; lactam 2-C (inferred); N-terminus assumed), for which, at μ-receptor ((3H)-DAMGO binding), the “Bmax (binding capacity)” value is on record as 18.6 pmol.
Regarding `CC(C)C[C@H](NC(=O)[C@H](CC(C)C)NC(=O)CNC(=O)[C@@H](N)Cc1ccc(O)cc1)C(=O)O` [Tyr--Gly--Leu--Leu, Tyr-Gly-Leu-Leu] (H-YGLL-OH), the Ki – broadly, a dissociation constant, usually derived from enzyme kinetics or from competition with a known ligand – in assay [1] amounted to 24000 nM; in assay [2], 32000 nM.
On to `CC(C)C[C@H](NC(=O)[C@H](Cc1ccccc1)NC(=O)[C@@H](C)NC(=O)[C@@H](N)Cc1ccc(O)cc1)C(=O)N[C@@H](CCC(=O)O)C(=O)O` [Tyr-D-Ala-Phe-Leu-Glu] (H-Y[dA]FLE-OH), for which the “GPI-test relative activity normorphine = 1” value in assay [3] turned out to be 0.01. For the same compound, at μ-receptor, the IC50 – broadly, the concentration needed to halve the response being measured – turned out to be 0.048 nM.
On to YSFLE-NH2 [Tyr-Ser-Phe-Leu-Glu-NH2], for which the IC50 on μ-receptor is 2.6 nM.
Consider `CC(C)C[C@H](NC(=O)[C@H](Cc1ccccc1)NC(=O)[C@@H](C)NC(=O)[C@@H](N)Cc1ccc(O)cc1)C(N)=O` [Tyr-D-Ala-Phe-Leu-NH2, reference compound] (H-Y[dA]FL-NH2), for which the “GPI-test relative activity normorphine = 1” value in assay [3] is listed as 0.3. At μ-receptor, this compound showed a half-maximal inhibitory concentration (IC50) of 0.1 nM.
On the same counts, the results for `CSCC[C@H](NC(=O)[C@H](Cc1ccccc1)NC(=O)[C@@H](C)NC(=O)[C@@H](N)Cc1ccc(O)cc1)C(N)=O` [Tyr-D-Ala-Phe-Met-NH2, reference compound] (H-Y[dA]FM-NH2) are 0.5 and 0.15 nM.
Compound `CC(C)C[C@@H]1NC(=O)[C@H](Cc2ccccc2)NC(=O)[C@@H](NC(=O)[C@@H](N)Cc2ccc(O)cc2)CCCCNC(=O)[C@H](CCC(=O)O)NC1=O` (H-YKFLE; lactam 2-C) showed an IC50 at μ-receptor of 0.055 nM.
With “YPFVE [Tyr--Pro--Phe--Val--Glu, Tyr-Pro-Phe-Val-Glu, reference compound]”, the affinity in assay [2], expressed as Ki, was 8900 nM. In other words, the single-digit micromolar range.
As for YPFLE [Tyr-Pro-Phe-Leu-Glu], the “GPI-test relative activity normorphine = 1” value in assay [3] was 0.01. This compound came in with an IC50 at μ-receptor of 0.024 nM.
As for `CC(C)C[C@@H]1NC(=O)[C@H](Cc2ccccc2)NC(=O)[C@@H](NC(=O)[C@@H](N)Cc2ccc(O)cc2)CSSC[C@@H](C(=O)O)NC1=O` (H-YCFLC-OH; disulfide 2-5), the concentration for half-maximal inhibition (IC50) at μ-receptor came to 0.24 nM.
